Assay results published in patent US4952592A, “1,4-dihydro 2,6-dimethyl 4-(2,3-methylenedioxyphenyl) 3-alkoxy carbonyl 5-[2-(substituted amino)ethoxy]carbonyl pyridine” (Instituto de Investigacion Y Desarrollo Quimicobiologico …, priority 1987, dated 1990).
Values belong to the compound of their own block, whether it stands above or below them.

How the values were obtained:
rat aorta = assay: Inhibitory effects with respect to contractions of the rat aorta induced by 80 mM KCl; type: cell-based, WISTAR rats; details: isolated rat aorta
Procedure: The compounds of the present invention were tested for their calcium-inhibitory properties by standard methods applicable "in vitro".
Inhibitory effects with respect to contractions of the rat aorta induced by 80 mM KCl.
The aorta of WISTAR rats (220-250 g), sacrificed by decapitation, are removed and placed in a 20-ml organ bath at a temperature of 34° C., containing a KREBS solution composed as follows (in mmol per liter): NaCl, 137; KCl, 2.7; MgCl2.6H2 O, 1.04; CaCl2.2H2 O, 0.8; Na2 HPO4.H2 O, 0.42; NaHCO3, 11.9; glucose, 5. This solution is oxygenated with a mixture of 95% of O2 and 5% of CO2 (Furchgott and Bhadakron, 1956).
After a 45-minute stabilization period under a tension of 2 g, the maximal contractions of the artery are induced by adding KCl to the bath until a final concentration of 80 mmol/liter is attained. After the contractions have stabilized, the compounds of the invention, or OXODIPINE as control substance, are added, leaving a period of at least 10 minutes for stabilizing the relaxation.
The compounds of the present invention are dissolved in ethanol to give concentrated solutions containing approximately 1 mg/ml, from which the dilutions used above, from 10^-13 to 10^-7 M, are obtained by adding saline solution. The 50% inhibitory concentrations (IC50) are determined by analysis of the straight regression line.

[1] = tested on: conscious renal hypertensive rats; assay: antihypertensive activity on conscious renal hypertensive rats (systolic blood pressure, tail sleeve); type: in vivo, rat; details: i.p.; for decrease of the original high pressure: 1 mg/kg
Procedure: (2)1- antihypertensive activity:
A few compounds according to the invention were tested for their antihypertensive activity on conscious renal hypertensive rats. The systolic blood pressure was measured on the tail of unanaesthetized rats by means of an inflatable sleeve and an L.H.5 000 digital pressure gauge (Letica Instruments, Barcelona, Spain). The measurements were carried out before the i.p. administration of the test substance, and then 30 minutes, 1, 2, 4 and 5 hours after administration. The animals were maintained in preheated plastic cylinders during the measurements. Rats having a blood pressure of less than 160 mmHg were eliminated from the experiment.
Each compound was administered in 5% strength suspension (CMC) by i.p. injection.

in vivo = details: mouse, ip, mice, i.p., mortality in 7 days, read-out: intraperitoneal LD50
Procedure: The acute toxicity of a few compounds of the invention was determined in mice according to the method of […] and WILCOXON. Groups of 5 mice weighing 20-25 g were treated with increasing i.p. doses of the test compounds. The mortality was recorded in the 7 days following the treatment, and the LD50 calculated on this basis.

coronary vessels = assay: Vascular activity in anaesthetized dogs: regional blood flows and haemodynamics with coronary artery occlusion; type: in vivo; details: i.v.
Procedure: The beneficial effects on the oxygen supply/consumption balance may be accompanied by a modification of the blood distribution within the wall, which will be better irrigated, and by an increase in the blood flow in the collateral vessels during an acute occlusion of the coronary artery. The effects of the compound of Example 11, at doses of 10 and less than 10 μg/kg i.v., were explored in anaesthetized dogs in order to determine: the regional (endocardium, epicardium) myocardial blood flows in the ischaemic and non-ischaemic zones, the ratio between the endo- and epicardial flows and the ratio of the flows in the ischaemic/nonischaemic zone, the regional blood flows in other areas (spleen, pancreas, kidney, liver, stomach, intestines, muscle, skin) in order to define the selectivity of action of the compound. The studies were carried out on 6 adult dogs, according to the technique of […] and […]. Pharmacol. 1985 - 16 - 59 - 74 and J. Pharmacol. Exp. Ther. 1982, 221, 740-747). In addition, the haemodynamic parameters (heart rate, arterial blood pressure, left ventricular pressure, cardiac flow, total peripheral resistance, systolic ejection volume, cardiac work, contractility index) were monitored at regular times, before and after 3 successive short periods (12 minutes) of total occlusion of the coronary artery, the injection of radioactive microspheres enabling the regional flows to be evaluated. After the first period of ischaemia, the parameters were allowed to return to normal before the test compound was injected, the second occlusion was then performed and this procedure was repeated, the reversibility of the parameters being complete approximately 45 minutes after each occlusion. The test compound was administered in aqueous-alcoholic solution (0.1 mg/ml) on the basis of 0.1 ml/kg i.v.

[2] = 3 mg/kg/min and above, in words; cited from earlier work

IC50 (rat aorta): 1920 nM
SMILES: CNCCOC(=O)C1=C(C)NC(C)=C(C(=O)OC)C1c1cccc2c1OCO2 (centres unmarked) [Example 1, 3-Methyl 5-[2-(N-methylamino)ethyl]1,4-dihydro-2,6-dimethyl-4-(2,3-methylenedioxyphenyl)-3,5-pyridinedicarboxylate]

IC50 (rat aorta): 558 nM
SMILES: COC(=O)C1=C(C)NC(C)=C(C(=O)OCCN(C)C=O)C1c1cccc2c1OCO2 (centres unmarked) [Example 2, 3-Methyl 5-[2-(N-formyl-N-methylamino)ethyl]1,4-dihydro-2,6-dimethyl-4-(2,3-methylenedioxyphenyl)-3,5-pyridinedicarboxylate]

IC50 (rat aorta): 52.8 nM
SMILES: COC(=O)C1=C(C)NC(C)=C(C(=O)OCCN(C=O)Cc2ccccc2)C1c1cccc2c1OCO2 (centres unmarked) [Example 3, 3-Methyl 5-[2-(N-formyl-N-benzylamino)ethyl]1,4-dihydro-2,6-dimethyl-4-(2,3-methylenedioxyphenyl)-3,5-pyridinedicarboxylate]

IC50 (rat aorta): 81.1 nM
SMILES: COC(=O)C1=C(C)NC(C)=C(C(=O)OCCN(C)Cc2ccccn2)C1c1cccc2c1OCO2 (centres unmarked) [Example 4, 3 -Methyl 5-{2-[N-methyl-N-(2-picolyl)amino]ethyl}1,4-dihydro-2,6-dimethyl-4-(2,3-methylenedioxyphenyl)-3,5-pyridinedicarboxylate]

IC50 (rat aorta): 245 nM
SMILES: COC(=O)C1=C(C)NC(C)=C(C(=O)OCCN(C)Cc2ccncc2)C1c1cccc2c1OCO2 (centres unmarked) [Example 5, 3-Methyl 5{2-[N-methyl-N-(4-picolyl)amino]ethyl}1,4-dihydro-2,6-dimethyl-4-(2,3-methylenedioxyphenyl)-3,5-pyridinedicarboxylate]

IC50 (rat aorta): 9 nM
SMILES: COC(=O)C1=C(C)NC(C)=C(C(=O)OCCN(C)Cc2cccnc2)C1c1cccc2c1OCO2 (centres unmarked) [Example 6, 3-Methyl 5-{2-[N-methyl-N-(3-picolyl)amino]ethyl}1,4-dihydro-2,6-dimethyl-4-(2,3-methylenedioxyphenyl)-3,5-pyridinedicarboxylate]

IC50 (rat aorta): 2.75 nM
SMILES: COC(=O)C1=C(C)NC(C)=C(C(=O)OCCN(C)Cc2ccc(F)cc2)C1c1cccc2c1OCO2 (centres unmarked) [Example 7, 3-Methyl 5-{2-[N-methyl-N-(4-fluorobenzyl)amino]ethyl}1,4-dihydro-2,6-dimethyl-4-(2,3-methylenedioxyphenyl)-3,5-pyridinedicarboxylate]

SMILES: CCOC(=O)C1=C(C)NC(C)=C(C(=O)OCCN(C)Cc2ccc(F)cc2)C1c1cccc2c1OCO2 (centres unmarked) [Example 8, 3-Ethyl 5-{2-[N-methyl-N-(4-fluorobenzyl)amino]ethyl}1,4-dihydro-2,6-dimethyl-4-(2,3-methylenedioxyphenyl)-3,5-pyridinedicarboxylate]
IC50 (rat aorta): 0.04 nM
decrease of the original high pressure [1]: 23%
LD50 at 168 h (in vivo): 70 to 80 mg/kg

IC50 (rat aorta): 13 nM
SMILES: COC(=O)C1=C(C)NC(C)=C(C(=O)OCCN(C)Cc2cccs2)C1c1cccc2c1OCO2 (centres unmarked) [Example 9, 3-Methyl 5-{2-[N-methyl-N-(2-thienylmethyl)amino]ethyl}1,4-dihydro-2,6-dimethyl-4-(2,3-methylenedioxyphenyl)-3,5-pyridinedicarboxylate]

IC50 (rat aorta): 0.904 nM
SMILES: CCOC(=O)C1=C(C)NC(C)=C(C(=O)OCCN(C)Cc2cccs2)C1c1cccc2c1OCO2 (centres unmarked) [Example 10, 3-Ethyl 5-{2-[N-methyl-N-(2-thienylmethyl)amino]ethyl}1,4-dihydro-2,6-dimethyl-4-(2,3-methylenedioxyphenyl)-3,5-pyridinedicarboxylate]

SMILES: CC1=C(C(=O)OCCN(C)Cc2ccc(F)cc2)C(c2cccc3c2OCO3)C(C(=O)OC(C)C)=C(C)N1 (centres unmarked) [Example 11, 3-Isopropyl 5-{2-[N-methyl-N-(4-fluorobenzyl)amino]ethyl}1,4-dihydro-2,6-dimethyl-4-(2,3-methylenedioxyphenyl)3,5-pyridinedicarboxylate]
decrease of the original high pressure [1]: 33%
duration of antihypertensive effects [1]: more than 6 hours
arterial blood pressure change (coronary vessels): -13%
cardiac flow change (coronary vessels): +9%
heart rate change (coronary vessels): -9%
systolic ejection volume change (coronary vessels): +18%
total peripheral resistance reduction (coronary vessels): 20%
epicardial flow increase (coronary vessels; ischaemic zones): ≥ 20%
endo/epi ratio change (coronary vessels; ischaemic zones, p<0.05): -21%
transmural flow increase (coronary vessels; non-ischaemic zones): 42%
endo/epi ratio change (coronary vessels; non-ischaemic zones, p<0.001): -22%
epicardial flow change (coronary vessels; non-ischaemic zones, p<0.001): +62%
coronary vascular resistance change (coronary vessels; non-ischaemic zones, p<0.05): -38%
endocardial flow change (coronary vessels; non-ischaemic zones, p<0.05): +26%
LD50 at 168 h (in vivo): 30 to 40 mg/kg

IC50 (rat aorta): 22.5 nM
SMILES: CC1=C(C(=O)OCCN(C)Cc2cccs2)C(c2cccc3c2OCO3)C(C(=O)OC(C)C)=C(C)N1 (centres unmarked) [Example 12, 3-Isopropyl 5-{2-[N-methyl-N-(2-thienylmethyl)amino]ethyl}1,4-dihydro-2,6-dimethyl-4-(2,3-methylenedioxyphenyl)-3,5-pyridinedicarboxylate]

SMILES: COC(=O)C1=C(C)NC(C)=C(C(=O)OC)C1c1ccccc1[N+](=O)[O-] [NIFEDIPINE]
heart rate [2]: increased
myocardial regional flows [2]: decreases the myocardial regional flows
perfusion pressure [2]: strongly reduced

IC50 (rat aorta): 3.1 nM
SMILES: CCOC(=O)C1=C(C)NC(C)=C(C(=O)OC)C1c1cccc2c1OCO2 (centres unmarked) [OXODIPINE, reference compound]
